Values quoted from earlier work in patent publication US8097606B2, “Antiglucocorticoids for the treatment of catatonia” (Corcept Therapeutics, Inc., priority 2003, dated 2012).

CC#C[C@]1(O)CC[C@H]2[C@@H]3CCC4=CC(=O)CCC4=C3[C@@H](c3ccc(N(C)C)cc3)C[C@@]21C [mifepristone, 17-β-hydroxy-11-β-(4-dimethyl-aminophenyl)-17-α-(1-propynyl)-estra-4,9-dien-3-one]
share of the daily dose excreted in the urine: less than 0.5%
